Experimental data published in patent US20230089557A1, “METHODS OF TREATING DLBCL USING BTK INHIBITORS AND COMBINATIONS THEREOF” (BEIGENE SWITZERLAND GMBH, priority 2020, published 2023).

Test system: R/R non-GCB DLBCL
Test: Compound 1 monotherapy in patients with R/R non-GCB DLBCL
Assay type: in vivo, human
Settings: for unadjusted ORR: non-GCB DLBCL
Procedure: A total of 121 patients with R/R non-GCB DLBCL were recruited in four Compound 1 treatment studies that were conducted at a similar time period. Two of the four studies were Compound 1 monotherapy (n=79) and two were Compound 1 combined with an anti-CD20 antibody therapy (n=42). Similar inclusion and exclusion criteria and response evaluation criteria were used across all studies. Fifty-six non-GCB patients were further subtyped by gene expression profiling (GEP) using the HTG EdgeSeq DLBCL Cell of Origin Assay. The expression of approximately 90 lymphoma-associated genes from the HTG GEP assay were analyzed by R package limma for correlation with response to Compound 1 treatment. Seventy-seven patient samples were tested by next-generation sequencing (NGS) with a panel of genes. Chi-square test was used to evaluate the correlation between mutations and the objective response rate (ORR).
Monotherapy schedule 1: Compound 1 was administered orally every day at 160 mg twice daily (BID) in 28-day cycles in patients with R/R non-GCB DLBCL.
Monotherapy schedule 2: Compound 1 was administered orally every day in each cycle at 160 mg BID in 28-day cycles in patients with R/R non-GCB DLBCL.
79 patients with non-GCB DLBCL were subjected to Compound 1 monotherapies (Monotherapy Schedule 1 or 2).

[1] = monotherapy 160 BID Schedule 1, ABC Subtype of DLBCL Patients
[2] = monotherapy 160 BID Schedule 1, CD79B ITAM_Mut
[3] = monotherapy 160 BID Schedule 1, CD79B ITAM_WT
[4] = monotherapy 160 BID Schedule 1, CD79B_Mut
[5] = monotherapy 160 BID Schedule 1, CD79B_WT
[6] = monotherapy 160 BID Schedule 1, MYD88_L265P
[7] = monotherapy 160 BID Schedule 1, MYD88_WT
[8] = monotherapy 160 BID Schedule 1, NOTCH1_Mut
[9] = monotherapy 160 BID Schedule 1, NOTCH1_WT
[10] = monotherapy 160 BID Schedule 1, Non-GCB DLBCL Patients
[11] = monotherapy 160 BID Schedule 1, Non-GCB DLBCL Patients with Sequence Available
[12] = monotherapy 160 BID Schedule 1, Patients with Sequence Available
[13] = monotherapy 160 BID Schedule 2, ABC Subtype of DLBCL Patients
[14] = monotherapy 160 BID Schedule 2, CD79B ITAM_Mut
[15] = monotherapy 160 BID Schedule 2, CD79B ITAM_WT
[16] = monotherapy 160 BID Schedule 2, CD79B_Mut
[17] = monotherapy 160 BID Schedule 2, CD79B_WT
[18] = monotherapy 160 BID Schedule 2, MYD88_L265P
[19] = monotherapy 160 BID Schedule 2, MYD88_L265P/CD79B_Mut
[20] = monotherapy 160 BID Schedule 2, MYD88_WT
[21] = monotherapy 160 BID Schedule 2, NOTCH1_Mut
[22] = monotherapy 160 BID Schedule 2, NOTCH1_WT
[23] = monotherapy 160 BID Schedule 2, Non-GCB DLBCL Patients
[24] = monotherapy 160 BID Schedule 2, Non-GCB DLBCL Patients with Sequence Available
[25] = monotherapy 160 BID Schedule 2, Other (not MYD88_L265P/CD79B_Mut)
[26] = monotherapy 160 BID Schedule 2, Patients with Sequence Available
[27] = monotherapy Total (N = 79), ABC Subtype of DLBCL Patients
[28] = monotherapy Total (N = 79), CD79B ITAM_Mut
[29] = monotherapy Total (N = 79), CD79B ITAM_WT
[30] = monotherapy Total (N = 79), CD79B_Mut
[31] = monotherapy Total (N = 79), CD79B_WT
[32] = monotherapy Total (N = 79), MYD88_L265P
[33] = monotherapy Total (N = 79), MYD88_L265P/CD79B_Mut
[34] = monotherapy Total (N = 79), MYD88_WT
[35] = monotherapy Total (N = 79), NOTCH1_Mut
[36] = monotherapy Total (N = 79), NOTCH1_WT
[37] = monotherapy Total (N = 79), Non-GCB DLBCL Patients
[38] = monotherapy Total (N = 79), Non-GCB DLBCL Patients with Sequence Available
[39] = monotherapy Total (N = 79), Other (not MYD88_L265P/CD79B_Mut)
[40] = monotherapy Total (N = 79), Patients with Sequence Available

With `C=CC(=O)N1CCC([C@@H]2CCNc3c(C(N)=O)c(-c4ccc(Oc5ccccc5)cc4)nn32)CC1` [Compound 1, (S)-7-(1-acryloylpiperidin-4-yl)-2-(4-phenoxyphenyl)-4,5,6,7-tetra-hydropyrazolo[1,5-a]pyrimidine-3-carboxamide] the ORR (GEP-confirmed activated B-cell DLBCL, first of the two monotherapies (Schedule 1)) was 53.8%, the ORR (GEP-confirmed activated B-cell DLBCL, second of the two monotherapies (Schedule 2)) was 36% and the ORR [1] was 53.8. For the same compound, the Response/Patient [1] was 7/13, the ORR [2] was 100.0 and the Response/Patient [2] was 2/2. For the same compound, the “Difference in ORR (95% CI)” value (monotherapy 160 BID Schedule 1, CD79B ITAM_Mut vs CD79B ITAM_WT) was 50.0, the ORR [3] was 50.0 and the Response/Patient [3] was 4/8. For the same compound, the ORR [4] was 75.0, the Response/Patient [4] was 3/4 and the “Difference in ORR (95% CI)” value (monotherapy 160 BID Schedule 1, CD79B_Mut vs CD79B_WT) was 25.0. The ORR [5] was 50.0, the Response/Patient [5] was 3/6 and the ORR [6] was 0.0. The Response/Patient [6] was 0/1, the “Difference in ORR (95% CI)” value (monotherapy 160 BID Schedule 1, MYD88_L265P vs MYD88_WT) was −66.7 and the ORR [7] was 66.7. For the same compound, the Response/Patient [7] was 6/9, the ORR [8] was 100.0 and the Response/Patient [8] was 1/1. The “Difference in ORR (95% CI)” value (monotherapy 160 BID Schedule 1, NOTCH1_Mut vs NOTCH1_WT) was 44.4, the ORR [9] was 55.6 and the Response/Patient [9] was 5/9. The ORR [10] was 31.6, the Response/Patient [10] was 12/38 and the ORR [11] was 60.0. The Response/Patient [11] was 6/10, the ORR (monotherapy 160 BID Schedule 1, Other (not MYD88_L265P/CD79B_Mut)) was 60.0 and the ORR [12] was 63.6. The Response/Patient [12] was 7/11, the ORR [13] was 36.0 and the Response/Patients [13] was 9/25. For the same compound, the ORR [14] was 46.2, the Response/Patients [14] was 6/13 and the “Difference in ORR (95% CI)” value (monotherapy 160 BID Schedule 2, CD79B ITAM_Mut vs CD79B ITAM_WT) was 17.6. The ORR [15] was 28.6, the Response/Patients [15] was 6/21 and the ORR [16] was 46.2. The Response/Patients [16] was 6/13, the “Difference in ORR (95% CI)” value (monotherapy 160 BID Schedule 2, CD79B_Mut vs CD79B_WT) was 17.6 and the ORR [17] was 28.6. For the same compound, the Response/Patients [17] was 6/21, the ORR [18] was 40.0 and the Response/Patients [18] was 4/10. The “Difference in ORR (95% CI)” value (monotherapy 160 BID Schedule 2, MYD88_L265P vs MYD88_WT) was 6.7, the ORR [19] was 50.0 and the Response/Patients [19] was 3/6. For the same compound, the “Difference in ORR (95% CI)” value (monotherapy 160 BID Schedule 2, MYD88_L265P/CD79B_Mut vs Other) was 17.9, the ORR [20] was 33.3 and the Response/Patients [20] was 8/24. The ORR [21] was 100.0, the Response/Patients [21] was 2/2 and the “Difference in ORR (95% CI)” value (monotherapy 160 BID Schedule 2, NOTCH1_Mut vs NOTCH1_WT) was 68.8. The ORR [22] was 31.3, the Response/Patients [22] was 10/32 and the ORR [23] was 29.3. The Response/Patients [23] was 12/41, the ORR [24] was 35.3 and the Response/Patients [24] was 12/34. The ORR [25] was 32.1, the Response/Patients [25] was 9/28 and the ORR [26] was 35.3. The Response/Patients [26] was 12/34, the ORR [27] was 42.1 and the Response/Patients [27] was 16/38. The ORR [28] was 53.3, the Response/Patients [28] was 8/15 and the “Difference in ORR (95% CI)” value (monotherapy Total (N = 79), CD79B ITAM_Mut vs CD79B ITAM_WT) was 18.9. The ORR [29] was 34.5, the Response/Patients [29] was 10/29 and the ORR [30] was 52.9. The Response/Patients [30] was 9/17, the “Difference in ORR (95% CI)” value (monotherapy Total (N = 79), CD79B_Mut vs CD79B_WT) was 19.6 and the ORR [31] was 33.3. The Response/Patients [31] was 9/27, the ORR [32] was 36.4 and the Response/Patients [32] was 4/11. For the same compound, the “Difference in ORR (95% CI)” value (monotherapy Total (N = 79), MYD88_L265P vs MYD88_WT) was −6.1, the ORR [33] was 50.0 and the Response/Patients [33] was 3/6. The “Difference in ORR (95% CI)” value (monotherapy Total (N = 79), MYD88_L265P/CD79B_Mut vs Other) was 10.5, the ORR [34] was 42.4 and the Response/Patients [34] was 14/33. For the same compound, the ORR [35] was 100.0, the Response/Patients [35] was 3/3 and the “Difference in ORR (95% CI)” value (monotherapy Total (N = 79), NOTCH1_Mut vs NOTCH1_WT) was 63.4. The ORR [36] was 36.6, the Response/Patients [36] was 15/41 and the ORR [37] was 30.4. For the same compound, the Response/Patients [37] was 24/79, the ORR [38] was 40.9 and the Response/Patients [38] was 18/44. The ORR [39] was 39.5, the Response/Patients [39] was 15/38 and the ORR [40] was 42.2. For the same compound, the Response/Patients [40] was 19/45, the “unadjusted ORR” value (first of the two monotherapies (Schedule 1)) was 31.6% and the “unadjusted ORR” value (second of the two monotherapies (Schedule 2)) was 29.3%. The ORR (two monotherapies, NOTCH1 mutant (n=3)) was 100%, the ORR (two monotherapies, non-GCB DLBCL with CD79B mutations (n=17)) was 52.9% and the ORR (two monotherapies, other population (without CD79B mutations)) was 33.3%. For the same compound, the ORR (two monotherapies, patients without NOTCH1 mutation) was 36.6%.
